PMC7713230, “Upconversion NIR-II fluorophores for mitochondria-targeted cancer imaging and photothermal therapy” (Nature Communications, 2020)

Assays:
143B cells [1] = experiment: Detection of ATP level; format: cell-based, human; conditions: CCCP 40 μM 6 h, positive control, control = 100%
Method: (§1) 20 mm confocal dishes, and cultured for 12 h at a density of 1×10^5 cells/well. Then, 200 µL of H4-PEG-PT (64 µM) was introduced into the confocal dishes. After 7 h incubation, 143B and HepG2 cells were washed twice with PBS, stained with Hoechst staining kit in PBS for 20 min. The tumor cell samples were immediately examined by an inverted Zeiss Axiovert 200 fluorescence microscopy at a 20× objective, using a high-pressure mercury lamp as an excitation source.
(§2) 143B cells (6×103) were incubated in 96 wells plate at 37 °C for 12 h. Then, cells were treated with 64 μM H4-PEG-PT or 40 μM CCCP for 6 h and irradiated by an 808 nm laser for 3 min each well. After irradiation, ATP level was immediately determined by an ATP determination kit (cat. no. A22066) from Thermo Fisher Scientific with 1% Triton X 100 water solution for cell permeabilization. After 10 min incubation, the luminescence intensity was then detected using a microplate reader (TECAN, Infinite M200 […]
(§3) Detection of mitochondrial membrane potential by JC-1 assay
(§4) 143B cells (6×103) were incubated in 96 wells plate for 12 h. Then, cells were treated with H4-PEG-PT (64 μM), or CCCP (40 μM) for 6 h and irradiated by an 808 nm laser for 3 min. […] Fluorescence intensity was then detected using a microplate reader (TECAN, Infinite M200 Pro) with excitation at 485 nm (green) or 535 nm (red) and emissions at 535 nm (green) or 595 nm (red). […]

143B cells [2] = experiment: Mitochondrial membrane potential by JC-1 assay; format: cell-based, human; conditions: CCCP 40 μM 6 h, positive control, control = 100%
Method: as §1, §2, §3, §4

[3] = tested on: mitochondria of 143B cells; experiment: Mitochondrial colocalization by confocal laser scanning microscopy; format: cell-based, human; conditions: concentrations lower than 10 nM, same experimental conditions
Method: […] Scale bar: 10 μm. Results in (a–f) are representative of three independent experiments.
143B (50,000 cells) were seeded in round discs and incubated in 1 mL of DMEM medium (pH = 7.4) containing 10% FBS for 24 h. After replacing the medium with 1 mL of fresh medium, 3k-PEG, H4-PEG, and H4-PEG-PT were added, respectively, and the cells were allowed to incubate for 6 h. After removing the medium and subsequently washing with PBS buffer (pH = 7.4) thrice, mitotracker green was added to stain the mitochondria for 30 min. The cells were viewed under a FV1200 CLSM (Olympus) and Leica SPE.

[4] = tested on: osteosarcoma cell lines (e.g., 143B cells); conditions: cited from earlier work
From the text: Osteosarcoma is the third most common malignant tumor and accounts for more than 60% of all malignant bone tumors in children and adolescents. Surgical excision of all primary and metastatic tumors remains the essential strategy behind osteosarcoma treatment. However, current diagnostic tools allow detection of only 8–15% of bone or lung metastatic patients[52],[53]. Thus, it is urgent to develop new theranostic strategies for early diagnosis, therapy, and monitoring responses to osteosarcoma therapies[54],[55]. The oligopeptide PPSHTPT (PT) was first designed to mimic the properties of th ...

Compound: N#CC(C#N)=NNc1cccc(Cl)c1 [CCCP, carbonyl cyanide m-chlorophenylhydrazone]
- cellular ATP level (143B cells [1]): ~ 78%
- ratio of J-aggregates to monomers (143B cells [2]): 63%

Compound: CN1/C(=C/C=C/c2n(Cc3ccc(CCl)cc3)c3cc(Cl)c(Cl)cc3[n+]2Cc2ccc(CCl)cc2)Oc2ccccc21 [Mitotracker Green]
- fluorescent intensity in mitochondrial imaging [3]: too weak to be detected

Compound: PPSHTPT [osteosarcoma-targeting oligopeptide PPSHTPT, mimics osteocalcin]
- affinity and specificity for osteosarcoma cell lines [4]: high affinity and specificity
